Data as given in US20260137697A1, “THIAZOLO[5,4-D]PYRIMIDINE COMPOUNDS, COMPOSITIONS COMPRISING THEM AND USES THEREOF” (University de Montreal, priority 2022, published 2026).

Key:
pERK, HCT116 cells = assay: Phospho-ERK inhibition, AlphaLISA p-ERK 1/2, HCT-116; type: cell-based, human; settings: Table 3; for IC50: HCT116 cells (KRAS G13D), 1 h treatment; for HCT116 pERK (Ymin %): lowest % inhibition value of the pERK IC50 curve, above −20% = no paradoxical induction
Experimental: All cancer cell lines (A375, A101D, A2058, RKO, HT29 SK-MEL 30, IPC298, HepG2, HCT-116, Lovo, SW620, SW480, NCI-H358, NCI-H2122, Calu-6, NCIH2087, NCIH1755, NCIH1666 and Mewo) were obtained from ATCC and cultured in RPM1-1640 medium (Gibco) supplemented with 5% heat inactivated fetal bovine serum (FBS, Wisent) at 37° C. under 5% CO2. Cells were maintained in T175 flasks (Greiner). They were passaged by removing the culture medium, washing once in 10 mL of room temperature Phosphate Buffered Saline (PBS; Wisent) and incubating at 37° C. with 2 mL of 0.05% Trypsin (Thermo-Fisher). Trypsin was then inactivated by adding complete growth medium and the cells were then replated in a T175 culture dish at the appropriate dilution. All cell lines were routinely tested for mycoplasma contamination. Tissue type and mutational status of each cell line can be found in Table B.
(c) Measurement of Phospho-ERK Inhibition in Cultivated Human Cancer Cell Lines by the AlphaLISA® SureFire® Ultra™ p-ERK 1/2 (Thr2O2/Tyr204)
AlphaLISA® SureFire® Ultra™ p-ERK 1/2 (Thr202/Tyr204) analysis was conducted on cells plated in 100 μL of complete RPMI-1640 growth medium in 96-well flat-bottomed transparent dishes (Costar) at a density indicated in Table C. Cells were maintained overnight at 37° C. under 5% CO2 before treatment with compounds' dilution series for one hour. The cell density in cells/cm^2 corresponds to cell number divided by the area of one well of a 96-well plate (0.143 cm^2).
In a dilution series 100 μL/well of test substance dilution prepared in complete RPMI-1640 growth media was added to the cells. The dilution series is selected so that ten concentrations cover a range from 10 μM to 0.33 nM. If necessary, the initial concentration of 10 μM is increased to 100 μM or lowered to 1 μM (as in the case of A375 and H1666 cells, which are generally more sensitive to the compounds) and further dilution is carried out accordingly. The final concentration of DMSO in the assay is set at 0.5%.
After treatment, media was removed, and cells were lysed in 50 μL of 1× AlphaScreen Ultra Lysis Buffer (Perkin Elmer). The AlphaLISA® SureFire® Ultra™ p-ERK 1/2 (Thr202/Tyr204) (PerkinElmer) reactions were performed with 5 μL of cell lysate according to the manufacturer's specifications in 384-well proxyplates (Perkin Elmer) followed by overnight incubation of the reactions at room temperature in a humidified chamber. After completion of the reactions, the signals were recorded on an EnVision plate reader (Perkin Elmer) using built in AlphaLISA® settings.
The effect of each compound dilution on the pERK signal was expressed in % inhibition and calculated as follows. An internal 100% inhibition control (1 μM trametinib, cat. No. HY-10999; MedChem Express; CAS No. 871700-17-3) was included in each plate and used as a measure of pERK background. First, the value obtained for trametinib was subtracted from each data point. The average of DMSO (vehicle) controls (set as 0% inhibition) was established and used to calculate % inhibition:
The ability of each compound to inhibit pERK signal was expressed as an IC50 value obtained by plotting the inhibition values for each data point of a dilution series and fitting the obtained curves using a log(agonist) versus response—variable slope (four parameters) function using GraphPadPrism (V7.0) or Dotmatics Screening Ultra platform.
When present, paradoxical pERK induction is inferred from the negative % inhibition values observed in the pERK IC50 curves of a compound.

BRAF = target: T1, BRAF (Homo sapiens, UniProt P15056); assay: BRAF kinase activity assay (ADP-Glo); type: biochemical; settings: Table 3; 10 μM ATP, kinase-dead MEK1 substrate
T1 construct: GST; purchased Millipore Sigma B4062-10UG
Experimental: (§1) Compound preparation: solid samples of each substance in 1dram vials were suspended in DMSO (Fisher Scientific) at a stock concentration of 20 mM. Stocks were kept at −20° C. and protected from light. If solubility of the compound at 20 mM appeared to be an issue, the initial concentration of the DMSO stock was changed to 10 mM or 5 mM.
(§2) In vitro enzymatic reactions were used for evaluating compounds intrinsic activity against BRAF, CRAF and ARAF. For BRAF and CRAF, 0.375 nM of purified GST-tagged kinases (cat. No. B4062-10UG and cat. No. R1656-10UG respectively from Millipore Sigma) were incubated with 75 nM of kinase-dead MEK1 substrate (cat. No. 40075; BPS Bioscience) in the presence of 10 μM of Ultrapure ATP (cat. No. V9102; Promega; part V915A) with and without the test compound in a buffer containing 50 mM HEPES pH 7.5, 10 mM MgCl2, 1 mM EDTA, 0.01% Brij-35 and 2 mM DTT. Separate reactions were performed with the MEK1 substrate and ATP as a blank control. ARAF kinase reactions were rigorously the same with the exception that kinase concentration was raised to 3.75 nM (cat. No. 1768-0000-1; Reaction Biology).
(§3) For compound treatment, 5 μL/well of test substance solution are placed in a 384-well proxyplate (Perkin Elmer) and mixed with 2× concentrated kinase reactions. The dilution series is selected so that nine concentrations cover a range from 100 nM to 0.01 nM. […] The final concentration of DMSO in the assay is set at 0.05%.
(§4) BRAF and CRAF kinase reactions were carried out for a total of 2 hours at 30° C. and then stopped by 1/2 dilution in ADP-Glo Reagent (cat. No. V9102; Promega; part V912C). Reactions were then incubated for 1 h at room temperature before addition of one volume of Kinase Detection Reagent (cat. No. V9102; Promega; part V917A). Plates were then equilibrated at room temperature for 30 minutes before detection of luminescence on a Synergy Neo2 plate reader (Biotek). The effect of each compound dilution on BRAF and CRAF kinase activity was expressed as % inhibition and calculated as follows. First, the internal 100% inhibition control (average of luminescence in kinase reactions comprising kinase dead MEK1 substrate alone) was subtracted from each data point. The average of DMSO (vehicle) controls (set as 0% inhibition) was established and used to calculate % inhibition:
(§5) IC50 values were obtained by plotting the kinase inhibition values and fitting the dose-activity curves using a log(agonist) versus response—variable slope (four parameters) function using either GraphPadPrism (V7.0) or Dotmatics Screening Ultra platform. Standards included in the ARAF kinase assay were Belvarafenib (MedChem Express cat. No. HY-109080; CAS No. 1446113-23-0), LXH254 (MedChem Express cat. No. HY-112089; CAS No. 1800398-38-2) and BGB283 (cat. No. HY-18957; CAS No. 1446090-79-4).

CRAF = target: T2, CRAF (Homo sapiens, UniProt P04049); assay: CRAF kinase activity assay (ADP-Glo); type: biochemical; settings: Table 3; 10 μM ATP, kinase-dead MEK1 substrate
T2 construct: fused on or other part: GST tag (N-terminal according to the vendor's product)
Experimental: as §1, §2, §3, §4, §5

T2 sequence (P04049 whole entry Y340E/Y341E, form open, the tested form may be a part): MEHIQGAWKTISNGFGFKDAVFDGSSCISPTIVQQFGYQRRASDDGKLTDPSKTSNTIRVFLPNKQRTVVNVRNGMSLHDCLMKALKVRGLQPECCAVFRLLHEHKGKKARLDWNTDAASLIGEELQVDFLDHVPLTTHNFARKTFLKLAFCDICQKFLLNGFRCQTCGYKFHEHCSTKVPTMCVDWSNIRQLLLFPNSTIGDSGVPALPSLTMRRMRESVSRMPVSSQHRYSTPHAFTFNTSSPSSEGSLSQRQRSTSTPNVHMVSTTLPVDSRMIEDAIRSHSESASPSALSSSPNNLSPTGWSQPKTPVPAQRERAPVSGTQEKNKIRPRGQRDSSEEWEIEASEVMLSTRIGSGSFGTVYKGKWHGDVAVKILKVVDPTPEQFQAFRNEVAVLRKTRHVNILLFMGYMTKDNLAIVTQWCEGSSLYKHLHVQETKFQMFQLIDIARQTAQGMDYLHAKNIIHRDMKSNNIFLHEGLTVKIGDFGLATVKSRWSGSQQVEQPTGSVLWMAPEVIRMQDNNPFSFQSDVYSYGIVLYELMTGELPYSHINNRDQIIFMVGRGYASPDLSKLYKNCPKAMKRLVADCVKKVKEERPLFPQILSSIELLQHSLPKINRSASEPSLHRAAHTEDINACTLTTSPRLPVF
T1 sequence (P15056 whole entry): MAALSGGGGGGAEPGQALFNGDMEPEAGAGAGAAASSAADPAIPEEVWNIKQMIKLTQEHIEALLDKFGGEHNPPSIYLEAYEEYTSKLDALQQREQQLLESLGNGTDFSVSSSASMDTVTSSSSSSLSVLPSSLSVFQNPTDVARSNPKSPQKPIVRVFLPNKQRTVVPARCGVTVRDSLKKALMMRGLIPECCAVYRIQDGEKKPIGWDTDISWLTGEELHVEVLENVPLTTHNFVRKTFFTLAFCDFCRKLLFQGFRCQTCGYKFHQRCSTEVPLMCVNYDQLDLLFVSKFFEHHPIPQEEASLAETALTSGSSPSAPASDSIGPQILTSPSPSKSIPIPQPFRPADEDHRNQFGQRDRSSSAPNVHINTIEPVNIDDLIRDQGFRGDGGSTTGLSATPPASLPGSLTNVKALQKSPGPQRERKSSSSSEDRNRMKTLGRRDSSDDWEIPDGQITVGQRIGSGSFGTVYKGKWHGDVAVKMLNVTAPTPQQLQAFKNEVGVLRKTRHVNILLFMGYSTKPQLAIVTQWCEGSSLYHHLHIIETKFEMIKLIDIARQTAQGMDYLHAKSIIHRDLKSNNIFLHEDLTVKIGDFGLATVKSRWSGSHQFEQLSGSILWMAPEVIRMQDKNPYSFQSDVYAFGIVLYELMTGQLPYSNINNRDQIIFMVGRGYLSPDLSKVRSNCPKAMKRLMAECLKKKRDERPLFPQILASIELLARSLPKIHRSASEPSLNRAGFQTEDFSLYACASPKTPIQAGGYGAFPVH

| Structure (SMILES) | IC50 (pERK, HCT116 cells) [nM] | HCT116 pERK (Ymin %) (pERK, HCT116 cells) [%] | IC50 (BRAF) [nM] | IC50 (CRAF) [nM] | IC50 (pERK, HCT116 cells; Homo sapiens, HCT-116) [nM] |
| --- | --- | --- | --- | --- | --- |
| Nc1cccc2c1ncn2-c1nc2c(Nc3c(F)ccc(NS(=O)(=O)c4cccc(Cl)c4Cl)c3F)ncnc2s1 [Example 3] | < 500 | −9 | 1 to 10 | < 10 | – |
| O=C(c1cn(-c2nc3c(Nc4c(F)ccc(NS(=O)(=O)c5cccc(Cl)c5Cl)c4F)ncnc3s2)c2ccccc12)N1CCC2CCCCC2(O)C1 (centres unmarked) [Example 89] | < 500 | −16 | 1 to 10 | > 50 | – |
| CC(C)S(=O)(=O)c1cn(-c2nc3c(Nc4c(F)ccc(NS(=O)(=O)c5cccc(Cl)c5Cl)c4F)ncnc3s2)c2ccccc12 [Example 73] | < 500 | −12 | 1 to 10 | > 50 | – |
| Cc1c(F)cccc1S(=O)(=O)Nc1ccc(F)c(Nc2ncnc3sc(-n4cc(C(=O)N(C)Cc5ccncc5)c5ccccc54)nc23)c1F [Example 30] | < 500 | −3 | 1 to 10 | 10 to 50 | – |
| O=S(=O)(Nc1ccc(F)c(Nc2ncnc3sc(-n4cc(S(=O)(=O)N5CC(CO)C5)c5ccccc54)nc23)c1F)c1cccc(Cl)c1Cl [Example 74] | 1000 to 10000 | −9 | 1 to 10 | < 10 | – |
| Cc1c(F)cccc1S(=O)(=O)Nc1ccc(F)c(Nc2ncnc3sc(-n4cnc5c(F)cccc54)nc23)c1F [Example 35] | < 500 | −8 | 1 to 10 | < 10 | – |
| Cc1c(F)cccc1S(=O)(=O)Nc1ccc(F)c(Nc2ncnc3sc(-n4cnc5c(N)cccc54)nc23)c1F [Example 2] | < 500 | −1 | 1 to 10 | 10 to 50 | – |
| CCN(CCOC)S(=O)(=O)c1cn(-c2nc3c(Nc4c(F)ccc(NS(=O)(=O)c5cccc(Cl)c5Cl)c4F)ncnc3s2)c2ccccc12 [Example 70] | – | – | > 10 | 10 to 50 | 500 to 1000 |
| COc1cccc2c1ncn2-c1nc2c(Nc3c(F)ccc(NS(=O)(=O)c4cccc(Cl)c4Cl)c3F)ncnc2s1 [Example 99] | – | – | 1 to 10 | < 10 | < 500 |
| C[C@]1(CO)CCCN1C(=O)c1cn(-c2nc3c(Nc4c(F)ccc(NS(=O)(=O)c5cccc(Cl)c5Cl)c4F)ncnc3s2)c2ccccc12 [Example 78] | 500 to 1000 | −14 | 1 to 10 | 10 to 50 | – |
| Cc1ncn(-c2nc3c(Nc4c(F)ccc(NS(=O)(=O)c5cccc(Cl)c5Cl)c4F)ncnc3s2)c1C [Example 103] | 500 to 1000 | −7 | 1 to 10 | < 10 | – |
| Cc1c(F)cccc1S(=O)(=O)Nc1ccc(F)c(Nc2ncnc3sc(-n4cc(C(=O)N(C)CCc5ccccn5)c5ccccc54)nc23)c1F [Example 28] | – | – | 1 to 10 | 10 to 50 | < 500 |
| COCCOCCOc1cccc2c1ncn2-c1nc2c(Nc3c(F)ccc(NS(=O)(=O)c4cccc(Cl)c4Cl)c3F)ncnc2s1 [Example 131] | < 500 | 0 | 1 to 10 | < 10 | – |
| CS(=O)(=O)C1CCN(c2cccc3c2ncn3-c2nc3c(Nc4c(F)ccc(NS(=O)(=O)c5cccc(Cl)c5Cl)c4F)ncnc3s2)CC1 [Example 153] | < 500 | −5 | 1 to 10 | < 10 | – |
| O=S(=O)(Nc1ccc(F)c(Nc2ncnc3sc(-n4ccc5ccccc54)nc23)c1F)c1cccc(Cl)c1Cl [Example 114] | 1000 to 10000 | −14 | > 10 | > 50 | – |
| O=C(c1cn(-c2nc3c(Nc4c(F)ccc(NS(=O)(=O)c5cccc(Cl)c5Cl)c4F)ncnc3s2)c2ccccc12)N1CC2CC1CO2 (centres unmarked) [Example 84] | < 500 | 18 | 1 to 10 | < 10 | – |
| CS(=O)(=O)N1CCN(c2cccc3c2ncn3-c2nc3c(Nc4c(F)ccc(NS(=O)(=O)c5cccc(Cl)c5Cl)c4F)ncnc3s2)CC1 [Example 155] | < 500 | −12 | 1 to 10 | 10 to 50 | – |
